Consider 2 molecules from patent EP0532759A1, “NOVEL ALLYL ALCOHOL DERIVATIVE” (TSUMURA & CO., priority 1991, dated 1992).

Like-named read-outs stand apart in the source and are kept apart here. Marks after values point to notes of the source that are not given here.

Data set [1] has as its system rat. The data set can be described thus: Analgesic activity test (Randall-Selitto method, Brewer's yeast). Type of data set: in vivo. The method, then: Experimental was made with "Randall-Selitto" analgesic effect measuring apparatus (manufactured by Ugo Basile in Italy), pressure was applied through a pressure terminal, and the pressure (g) applied at the time showing a wriggling motion in rat was measured as a threshold value for pain. The threshold value for pain was measured for each leg, and rats showing substantially the same degree of threshold value for pain were selected and used for the experiment. A 20 % aqueous Brewer's yeast solution was subcutaneously administered in an amount of 0.1 ml to the right hind paw of the rat, and the threshold value for pain was measured on both legs 30 min and 60 min after the administration of the aqueous solution. At the same time, a suspension of the compound of the present invention in a 2 % polysorbate 80 physiological saline (prepared by dissolving the compound of the present invention in polysorbate 80 in an amount of 2 % of the whole amount of the solution and gradually adding and mixing physiological saline therewith) was intravenously and orally administered, and the threshold value for pain of both legs was measured 15 min, 30 min, 60 min, 90 min and 120 min after the administration. The measurements were compared with the control group, and an increase in the threshold value for pain was regarded as an evidence for the analgesic activity.

Data set [2] addresses T1, 5-lipoxygenase (Rattus norvegicus, UniProt P12527).
T1 construct: endogenous in cells; host or cells: RBL-1 cells (sonicated, 105,000 x G supernatant)
T1 sequence (P12527 1-673): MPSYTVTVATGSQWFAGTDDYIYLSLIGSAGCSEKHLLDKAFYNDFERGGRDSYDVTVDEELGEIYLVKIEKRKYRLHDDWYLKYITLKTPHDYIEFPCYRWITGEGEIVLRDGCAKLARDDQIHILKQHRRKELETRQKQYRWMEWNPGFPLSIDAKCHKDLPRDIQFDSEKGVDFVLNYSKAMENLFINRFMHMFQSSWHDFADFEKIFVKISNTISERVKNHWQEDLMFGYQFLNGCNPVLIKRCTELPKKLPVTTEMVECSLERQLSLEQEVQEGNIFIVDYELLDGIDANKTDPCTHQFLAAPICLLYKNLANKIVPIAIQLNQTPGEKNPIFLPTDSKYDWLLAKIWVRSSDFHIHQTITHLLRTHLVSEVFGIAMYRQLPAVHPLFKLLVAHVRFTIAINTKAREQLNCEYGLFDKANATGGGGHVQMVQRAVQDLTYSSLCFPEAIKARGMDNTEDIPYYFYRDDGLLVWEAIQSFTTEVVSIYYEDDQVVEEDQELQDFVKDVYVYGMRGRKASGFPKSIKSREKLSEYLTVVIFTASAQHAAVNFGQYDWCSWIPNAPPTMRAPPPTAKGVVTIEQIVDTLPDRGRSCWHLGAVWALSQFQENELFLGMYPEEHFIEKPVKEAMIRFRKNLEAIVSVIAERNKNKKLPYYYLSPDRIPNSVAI
The data set can be described thus: 5-Lipoxygenase inhibitory activity (5-HETE formation, HPLC). The settings on record: enzyme preparation from RBL-1 culture cells; 10 µM arachidonic acid; 37°C, 10 min; read-out: IC₅₀. In kind it is biochemical. The method, then:
RBL-1 culture cells were suspended in a 50 mM phosphate buffer (pH: 7.4) containing 1 mM ethylenediaminetetraacetic acid (EDTA) and 10 % ethylene glycol so that the concentration was 5 x 10⁶ cells/ml. The suspension was subjected to an ultrasonic treatment and centrifuged at 10,000 x G for 10 min and further at 105,000 x G for 60 min. The resultant supernatant was used as a 5-lipoxygenase enzyme preparation.
50 mM phosphate buffer, 15 mM calcium chloride, 20 µM indomethacin, 18 mM glutathione, 6 mM adenosine triphosphate (ATP), 10 µM arachidonic acid, the enzyme preparation prepared above and an ethanol solution of the compound of the present invention were placed in a test tube in such a manner that the whole quantity was 0.6 ml and the final concentration was 5 µM, 1 µM and 0.5 µM. A reaction was allowed to proceed at 37°C for 10 min. After the completion of the reaction, 1.2 ml of acetone and 100 µl of 2 N formic acid were added thereto to terminate the reaction. […] The resultant extract was concentrated and dissolved in methanol, and the content of […] in the solution was measured by means of high performance liquid chromatography [column = TSK-gel ODS-80 TM (manufactured by Tosoh Corporation); mobile phase = acetonitrile : water : acetic acid (60 : 40 : 0.02); flow rate = 1 ml/min; ultraviolet rays for detection = 235 nm]. […]

The target of data set [3] is cyclooxygenase. Nature of the data set: Cyclooxygenase inhibitory activity (PGE2 formation from [1-14C] arachidonic acid). The following applies: microsome fraction of rabbit kidney medulla; 37°C, 15 min; PGE2 radioactivity; read-out: IC₅₀. Type of data set: biochemical. The method, then:
60 ml of a 0.1 M phosphate buffer (pH: 7.5) containing 1 mM glutathione was added to 7.0 g of medulla of kidney of a rabbit, and the mixture was homogenized through the use of a polytron. The resultant homogenate was centrifuged at 9,000 x G for 20 min to obtain a microsome fraction. This fraction was dissolved in 7 ml of a 0.1 M phosphate buffer (pH: 7.5) containing 1 […] glutathione to give a cyclooxygenase enzyme preparation.
4 mM glutathione, 10 mM tryptophan, 0.25 µM hemoglobin (each in final concentration) and a phosphate buffer (pH: 7.5) were added to 15 µl of the enzyme preparation thus prepared, and [1-¹⁴C] arachidonic acid (5 x 10⁴ dpm) and the compound of the present invention were further added thereto in such a manner that the concentrations were 40 µM, 20 µM, 10 µM and 5 µM, respectively (total amount: […]). The mixture was incubated at 37°C for 15 min, and 1 N hydrochloric acid was added thereto to terminate the reaction. Prostaglandin E₂ (PGE₂) was added thereto as a carrier, and the reaction product was extracted with 2 ml of an ether. The resultant extract was concentrated and applied to thin layer chromatography (development solvent = chloroform : methanol : acetic acid = 18 : 1 : 1) to separate a product. […] The PGE₂ radioactivity was measured by means of a liquid scintillation counter.

Data set [4] concerns balb/c 3T3 cells. Nature of the data set: Inhibition of EGF-accelerated fibroblast growth (3H-thymidine incorporation). In kind it is cell-based. The settings on record: 0.5 µg per hole compound, 50 pg per hole mouse EGF. On the procedure: A culture solution (hereinafter referred to as "CS DMEM") containing 10 % calf serum adjusted in such a manner that fibroblast (balb/c 3T3 cells) was contained in a concentration of 2.5 x 10⁴ cells per 0.5 ml was incubated on a 24-hole plate in an amount of 1 ml per hole. After the fibroblast was saturated in a monolayer state, cultivation was conducted at 37°C for 12 hr in 1% CS DMEM instead of the above medium through the use of 5 % CO₂. 0.5 µg per hole of the compound of the present invention and 50 pg per hole of mouse EGF were added thereto, and the cultivation was further conducted for 16 hr. ³H-thymidine in an amount of 0.5 µCi/50 µl/well was added thereto, and the mixture was cultivated for 8 hr. Then, the culture solution was removed, and washing was conducted with a cooled isotonic phosphate buffer. A 5 % cold trichloroacetic acid was added thereto, and the mixture was allowed to stand for 30 min. The supernatant was removed, and the residue was dissolved in a 0.5 M sodium hydroxide solution. The solution was neutralized with 0.5 M hydrochloric acid, a scintillation cocktail was added thereto, and counting was conducted by means of a liquid scintillation counter. The radioactivity of ³H-thymidine incorporated into the cells accompanying the growth was measured to study the function of the novel allyl alcohol on the growth of the cell.
(Dividing cells build labelled thymidine or BrdU into new DNA.)

Data set [5] relates to microvascular endothelial cells derived from human caul. The data set can be described thus: Proliferation and migration of microvascular endothelial cells (Boyden chamber, EGF). In kind it is cell-based. The following applies: Endothelial cell, 10 µM/ml compound, 10 ng/ml EGF, cells that came out into the lower chamber, read-out: percentage inhibition. On the procedure: 5 x 10⁴ microvascular endothelial cells derived from human caul were placed in an upper chamber of a Boyden chamber, and 10 ng/ml of EGF was added as a control to a lower chamber separated from the upper chamber by means of a filter having a pore size of 5 µm (a polycarbonate filter manufactured by Nucleobore). 10 ng/ml of EGF and 10 µM/ml of the compound of the present invention were added to the drug administration group . The number of cells which had come out into the lower chamber was measured in terms of cells per HPF […].

Data set [6] has as its system ICR mouse. The data set can be described thus: Arachidonic acid ear lobe edema inhibiting test. The following applies: 1 mg per 20 µl acetone applied to auricle; 2 mg arachidonic acid 30 min later; ear thickness after one hour; versus control. In kind it is in vivo. The method, then: 1 mg of the novel allyl alcohol derivative per 20 µl of acetone were applied to the auricle on the inside of the right of an ICR mouse (female, 8 - 11 weeks old). 30 min after the application, 10 µl of an acetone solution containing 2 mg of arachidonic acid was applied to the same site, and one hour after the application of the acetone solution, the thickness of the ear was measured by means of a dial thickness gauge. An equal weight of acetone was applied to the auricle on the left side, and measurement was conducted in the same manner as that described above, and […] was regarded as swelling of the ear. Further, a group wherein the solvent was applied instead of the sample was used as a control, and the ear lobe edema inhibition was determined by the following equation. [formula]

Data set [7] has as its system platelet-rich plasma (PRP). Nature of the data set: Platelet aggregation inhibition test (Born method, in vitro). Type of data set: cell-based. The following applies: Rattus norvegicus; for inhibition at 5 µM: compound 5 µM; for inhibition at 20 µM: compound 20 µM. The method, then:
Blood was collected from a rat subjected to fasting for 12 hr so that the volume of 3.8 % sodium citrate became 1/10. The collected blood was centrifuged at room temperature and 159 x G for 10 min to collect a platelet-rich plasma (PRP). The remaining blood was centrifuged at room temperature and 1800 x G for 10 min to collect PPP (platelet poor plasma). The number of platelets was measured by means of PC-603A manufactured by Erma and adjusted to 3 x 10⁸/ml with PPP. The aggregation capability was measured according to the Born method with the concentration of PRP being 0 % (PPP) and 100 % […] through the use of a 4 channel NKK HEMATRACER aggregation meter. In an in vitro test, the novel allyl alcohol derivative was added in a concentration of 5 µM or 20 µM, the mixture was pre-incubated at 37°C for 3 min. An aggregation inducer was added thereto, and the aggregation capability was measured. Adenine diphosphate (ADP), collagen, epinephrine and arachidonic acid were used as the aggregation inducer. The concentration of the aggregation inducer was 2 µM for ADP, 1 µg/ml for collagen, 400 µM for arachidonic acid and 6 µg/ml of epinephrine. The novel ally] alcohol derivative was applied to the experiment after dissolution in dimethylsulfoxide (DMSO). The final concentration of DMSO thereof was 0.4 %, the addition of DMSO alone in this concentration had no clear effect on the aggregation of the platelet.

Data set [8] is described as follows: LD50 (acute toxicity). The settings on record: in vivo, mouse, 72 hr after administration, read-out: LD₅₀. On the procedure:
A suspension of the compound of the present invention in a 2 % polysorbate 80 physiological saline (prepared by dissolving the compound of the present invention in polysorbate 80 in an amount of 2 % of the whole amount of the solution and gradually adding and mixing physiological saline therewith) was intravenously and orally administered to a mouse, and 72 hr after the administration, the LD₅₀ was calculated based on whether the mouse had survived or was dead. In the calculation, the up-and-down method was used for the intravenous administration, while the Litchfield-Wilcoxon method was used for the oral administration.

[9] abbreviates: 140 mg/kg, 15 min after administration, control 123.
Where [10] appears, read: 140 mg/kg, 30 min after administration, control 115.
Where [11] appears, read: 140 mg/kg, 60 min after administration, control 108.
Where [12] appears, read: inducer arachidonic acid 400 µM.

`Cc1c(N(C)C)c(=O)n(-c2ccccc2)n1C` [Aminopyrine, reference compound]: the “Threshold value for pain (g)” value is listed as 190^b g in data set [1] (setting [9]), 235^b g in data set [1] (setting [10]) and 212^b g in data set [1] (setting [11]).
The term inhibition denotes the share of the control response that was lost under treatment. For the molecule `CCCCC/C=C/C(O)CCc1ccc(O)c(OC)c1` (stereo not shown) [compound of the present invention], the IC50 in data set [2] worked out at 0.54 µM; in data set [3] it was 7.62 µM. This molecule showed a growth inhibition in data set [4] of 72.9%. In addition, the inhibition at 10 µM in data set [5] is 82%. The edema inhibition in data set [6] was determined as 83%. In addition, the inhibition at 5 µM stood at 12% in data set [7] (inducer ADP 2 µM), 67% in data set [7] (setting [12]), 21% in data set [7] (inducer collagen 1 µg/ml) and 52% in data set [7] (inducer epinephrine 6 µg/ml). Besides, the inhibition at 20 µM in data set [7] (inducer ADP 2 µM) was determined as 26%; in data set [7] (setting [12]), 96%; in data set [7] (inducer collagen 1 µg/ml), 43%; in data set [7] (inducer epinephrine 6 µg/ml) it was 63%. Also, the “Threshold value for pain (g)” value in data set [1] (70 mg/kg, 15 min after administration, control 123) is listed as 153^a g; in data set [1] (70 mg/kg, 30 min after administration, control 115), 183^b g; in data set [1] (70 mg/kg, 60 min after administration, control 108) it was 142^a g; in data set [1] (setting [9]), 190^b g; in data set [1] (setting [10]), 222^b g; in data set [1] (setting [11]) it was 210^b g. Besides, the “threshold value for pain as compared with the control group” value in data set [1] (dose of 5 mg/kg, within 15 to 60 min, p < 0.05) was “significant increase”. The LD50 at 72 hr in data set [8] (Intravenous, up-and-down method) was 75.6 mg/kg; in data set [8] (Oral, Litchfield-Wilcoxon method) it was 1340 mg/kg.
